Test results reported in PubChem BioAssay AID1918949 (Molecular Pharmacology Branch, DTP, NCI, 2023).

Tested on: K24384-001-R-PDC complex spheroid viability
Assay: Anticancer human tumor K24384-001-R-PDC patient-derived pancreatic adenocarcinoma cell line growth inhibition
Details: for IC50: curve of first compound; for viability, T/C: stronger effect = lower value
Outline: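 Multicellular complex spheroids of tumor cells with human endothelial cells (HUVEC) and mesenchymal stem cells; the LSD1 inhibitor iadademstat was combined with standard-of-care or investigational agents. Top concentration at or near clinical Cmax, half-log dilutions; final DMSO ≤0.25%.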

[1] = second compound 0.1 µM, first compound 0.00316 µM
[2] = second compound 0.1 µM, first compound 0.01 µM
[3] = second compound 0.1 µM, first compound 0.0316 µM
[4] = second compound 0.1 µM, first compound 0.1 µM
[5] = second compound 0.316 µM, first compound 0.00316 µM
[6] = second compound 0.316 µM, first compound 0.01 µM
[7] = second compound 0.316 µM, first compound 0.0316 µM
[8] = second compound 0.316 µM, first compound 0.1 µM
[9] = second compound 1 µM, first compound 0.00316 µM
[10] = second compound 1 µM, first compound 0.01 µM
[11] = second compound 1 µM, first compound 0.0316 µM
[12] = second compound 1 µM, first compound 0.1 µM
[13] = second compound 3.16 µM, first compound 0.00316 µM
[14] = second compound 3.16 µM, first compound 0.01 µM
[15] = second compound 3.16 µM, first compound 0.0316 µM
[16] = second compound 3.16 µM, first compound 0.1 µM
[17] = second compound 10 µM, first compound 0.00316 µM
[18] = second compound 10 µM, first compound 0.01 µM
[19] = second compound 10 µM, first compound 0.0316 µM
[20] = second compound 10 µM, first compound 0.1 µM
[21] = second compound 0.1 µM, first compound 0.00949 µM
[22] = second compound 0.1 µM, first compound 0.03 µM
[23] = second compound 0.1 µM, first compound 0.0949 µM
[24] = second compound 0.1 µM, first compound 0.3 µM
[25] = second compound 0.316 µM, first compound 0.00949 µM
[26] = second compound 0.316 µM, first compound 0.03 µM
[27] = second compound 0.316 µM, first compound 0.0949 µM
[28] = second compound 0.316 µM, first compound 0.3 µM
[29] = second compound 1 µM, first compound 0.00949 µM
[30] = second compound 1 µM, first compound 0.03 µM
[31] = second compound 1 µM, first compound 0.0949 µM
[32] = second compound 1 µM, first compound 0.3 µM
[33] = second compound 3.16 µM, first compound 0.00949 µM
[34] = second compound 3.16 µM, first compound 0.03 µM
[35] = second compound 3.16 µM, first compound 0.0949 µM
[36] = second compound 3.16 µM, first compound 0.3 µM
[37] = second compound 10 µM, first compound 0.00949 µM
[38] = second compound 10 µM, first compound 0.03 µM
[39] = second compound 10 µM, first compound 0.0949 µM
[40] = second compound 10 µM, first compound 0.3 µM
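Further: spheroids exposed to agents for seven days before luminescence viability reading.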
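Wherever viability, T/C is given: 100% = DMSO vehicle control viability.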

SMILES: CC[C@@]1(O)C(=O)OCc2c1cc1n(c2=O)Cc2cc3c(CN(C)C)c(O)ccc3nc2-1 + NC1CC1c1ccc(-c2cccc(O)c2)cc1
- IC50 (second compound 0.1 µM): 10.4 nM
- IC50 (second compound 0.316 µM): 12.1 nM
- IC50 (second compound 1 µM): 9.47 nM
- IC50 (second compound 3.16 µM): 8.68 nM
- IC50 (second compound 10 µM): 11.4 nM
- viability, T/C (second compound 0.1 µM, first compound 0.000316 µM): 72.3%
- viability, T/C (second compound 0.1 µM, first compound 0.001 µM): 81.5%
- viability, T/C [1]: 79.9%
- viability, T/C [2]: 50.3%
- viability, T/C [3]: 43.7%
- viability, T/C [4]: 33.2%
- viability, T/C (second compound 0.316 µM, first compound 0.000316 µM): 76.1%
- viability, T/C (second compound 0.316 µM, first compound 0.001 µM): 90.1%
- viability, T/C [5]: 62.9%
- viability, T/C [6]: 53.5%
- viability, T/C [7]: 43.7%
- viability, T/C [8]: 35.9%
- viability, T/C (second compound 1 µM, first compound 0.000316 µM): 78.5%
- viability, T/C (second compound 1 µM, first compound 0.001 µM): 89%
- viability, T/C [9]: 73.3%
- viability, T/C [10]: 49.8%
- viability, T/C [11]: 33.5%
- viability, T/C [12]: 35.3%
- viability, T/C (second compound 3.16 µM, first compound 0.000316 µM): 75.8%
- viability, T/C (second compound 3.16 µM, first compound 0.001 µM): 79.2%
- viability, T/C [13]: 77.6%
- viability, T/C [14]: 46.1%
- viability, T/C [15]: 42%
- viability, T/C [16]: 33.9%
- viability, T/C (second compound 10 µM, first compound 0.000316 µM): 79%
- viability, T/C (second compound 10 µM, first compound 0.001 µM): 81.7%
- viability, T/C [17]: 84.4%
- viability, T/C [18]: 51.1%
- viability, T/C [19]: 40.9%
- viability, T/C [20]: 41.1%

SMILES: CC1COCCN1c1cc(-c2ccnn2C)c2ccnc(-c3ccn[nH]3)c2n1 (stereo not given) + NC1CC1c1ccc(-c2cccc(O)c2)cc1
- IC50 (second compound 0.1 µM): 4.71 nM
- IC50 (second compound 0.316 µM): 326 nM
- IC50 (second compound 1 µM): 16.3 nM
- IC50 (second compound 3.16 µM): 10.4 nM
- IC50 (second compound 10 µM): 343 nM
- viability, T/C [1]: 51.2%
- viability, T/C [2]: 51.4%
- viability, T/C [3]: 40.2%
- viability, T/C [4]: 44.7%
- viability, T/C (second compound 0.1 µM, first compound 0.316 µM): 46.9%
- viability, T/C (second compound 0.1 µM, first compound 1 µM): 38%
- viability, T/C [5]: 56.1%
- viability, T/C [6]: 46.6%
- viability, T/C [7]: 51%
- viability, T/C [8]: 45.1%
- viability, T/C (second compound 0.316 µM, first compound 0.316 µM): 53.5%
- viability, T/C (second compound 0.316 µM, first compound 1 µM): 34%
- viability, T/C [9]: 53%
- viability, T/C [10]: 59.9%
- viability, T/C [11]: 40.9%
- viability, T/C [12]: 42.9%
- viability, T/C (second compound 1 µM, first compound 0.316 µM): 43.8%
- viability, T/C (second compound 1 µM, first compound 1 µM): 35.8%
- viability, T/C [13]: 56.5%
- viability, T/C [14]: 52.3%
- viability, T/C [15]: 43.7%
- viability, T/C [16]: 39.7%
- viability, T/C (second compound 3.16 µM, first compound 0.316 µM): 48.1%
- viability, T/C (second compound 3.16 µM, first compound 1 µM): 37%
- viability, T/C [17]: 64.2%
- viability, T/C [18]: 60.1%
- viability, T/C [19]: 51.1%
- viability, T/C [20]: 59%
- viability, T/C (second compound 10 µM, first compound 0.316 µM): 51.8%
- viability, T/C (second compound 10 µM, first compound 1 µM): 31.7%

SMILES: NS(=O)(=O)OCC1CC(n2ccc3c(NC4CCc5ccccc54)ncnc32)CC1O (stereo not given) + NC1CCC(NC2CC2c2ccccc2)CC1
- IC50 (second compound 0.1 µM): 506 nM
- IC50 (second compound 0.316 µM): 517 nM
- IC50 (second compound 1 µM): 412 nM
- IC50 (second compound 3.16 µM): 445 nM
- IC50 (second compound 10 µM): 441 nM
- viability, T/C [21]: 98.6%
- viability, T/C [22]: 138%
- viability, T/C [23]: 125%
- viability, T/C [24]: 64.8%
- viability, T/C (second compound 0.1 µM, first compound 0.949 µM): 38.5%
- viability, T/C (second compound 0.1 µM, first compound 3 µM): 26.1%
- viability, T/C [25]: 87.6%
- viability, T/C [26]: 142%
- viability, T/C [27]: 144%
- viability, T/C [28]: 67.9%
- viability, T/C (second compound 0.316 µM, first compound 0.949 µM): 34.1%
- viability, T/C (second compound 0.316 µM, first compound 3 µM): 26.1%
- viability, T/C [29]: 109%
- viability, T/C [30]: 138%
- viability, T/C [31]: 124%
- viability, T/C [32]: 56.6%
- viability, T/C (second compound 1 µM, first compound 0.949 µM): 37.8%
- viability, T/C (second compound 1 µM, first compound 3 µM): 27.2%
- viability, T/C [33]: 93.2%
- viability, T/C [34]: 138%
- viability, T/C [35]: 118%
- viability, T/C [36]: 59.7%
- viability, T/C (second compound 3.16 µM, first compound 0.949 µM): 37.1%
- viability, T/C (second compound 3.16 µM, first compound 3 µM): 25.9%
- viability, T/C [37]: 91.2%
- viability, T/C [38]: 116%
- viability, T/C [39]: 95.7%
- viability, T/C [40]: 58.4%
- viability, T/C (second compound 10 µM, first compound 0.949 µM): 31.9%
- viability, T/C (second compound 10 µM, first compound 3 µM): 13.2%

SMILES: Nc1ncn(C2CC(O)C(CO)S2)c(=O)n1 (stereo not given) + NC1CCC(NC2CC2c2ccccc2)CC1
- IC50 (second compound 0.1 µM): > 300 nM
- IC50 (second compound 0.316 µM): > 300 nM
- IC50 (second compound 1 µM): > 300 nM
- IC50 (second compound 3.16 µM): > 300 nM
- IC50 (second compound 10 µM): > 300 nM
- viability, T/C (second compound 0.1 µM, first compound 0.000949 µM): 92.8%
- viability, T/C (second compound 0.1 µM, first compound 0.003 µM): 85.4%
- viability, T/C [21]: 93%
- viability, T/C [22]: 70.1%
- viability, T/C [23]: 78.1%
- viability, T/C [24]: 63.3%
- viability, T/C (second compound 0.316 µM, first compound 0.000949 µM): 97.4%
- viability, T/C (second compound 0.316 µM, first compound 0.003 µM): 77.4%
- viability, T/C [25]: 80.6%
- viability, T/C [26]: 79.7%
- viability, T/C [27]: 85.1%
- viability, T/C [28]: 59.5%
- viability, T/C (second compound 1 µM, first compound 0.000949 µM): 82.2%
- viability, T/C (second compound 1 µM, first compound 0.003 µM): 78.1%
- viability, T/C [29]: 105%
- viability, T/C [30]: 78.5%
- viability, T/C [31]: 73.5%
- viability, T/C [32]: 65.2%
- viability, T/C (second compound 3.16 µM, first compound 0.000949 µM): 98.1%
- viability, T/C (second compound 3.16 µM, first compound 0.003 µM): 97.9%
- viability, T/C [33]: 85%
- viability, T/C [34]: 75%
- viability, T/C [35]: 81.7%
- viability, T/C [36]: 48.5%
- viability, T/C (second compound 10 µM, first compound 0.000949 µM): 90.3%
- viability, T/C (second compound 10 µM, first compound 0.003 µM): 98.6%
- viability, T/C [37]: 71.2%
- viability, T/C [38]: 79.5%
- viability, T/C [39]: 69.5%
- viability, T/C [40]: 61.9%
